The values that follow come from patent US20240246920A1, “TRIAZOLE DERIVATIVES WITH ANTIFUNGAL ACTIVITY” (King's College London, priority 2020, published 2024).

One test concerns Candida auris TDG2211. In words: microbe, parasite or virus in culture. Particulars: Candidozyma auris. The class given is cell-based. Here is the method:
(§1) The minimum inhibitory concentration of test compounds were determined in a panel of Candida species (see Table 4 below), using the a serial dilution method in 96-well plates using the following protocol.
(§2) Starter cultures of fungal strains to be tested were grown in 3 mL of RPMI 2% glucose media incubated at 37° C. with shaking at 200 rpm overnight. The culture media used was 900 mL H2O; 10.4 g RPMI 1640 (with L-glutamine and a pH indicator but without bicarbonate); 34.5 g MOPS and 18 g glucose. The pH of the media was adjusted to 7.0 with 1 M sodium hydroxide.
(§3) Solutions of the compound to be tested were prepared by dissolving the compound in DMSO and subsequently into media to the desired concentrations. […] The last two rows of each plate were control rows containing the culture media alone and the media plus fungi.
(§4) The fungi starter cultures were diluted 1:10 in water in cuvettes. This was then further diluted to an optical density (OD600) of 0.01 in media. 100 μL of the fungi was added to each well giving a starting concentration of fungus of 0.5-5×10^5/mL. One species of fungus was used on each plate. The plates were then held at 37° C. for 24 hours.
(§5) A plate reader was used to measure growth in each well at OD530 nm and the MIC was determined for each test compound. The MIC is defined as the lowest concentration giving rise to inhibition of ≥50% of that of the drug-free control well containing the fungus and media.
(§6) The Candida auris strains shown in Table 7 were either taken from the National Collection of Pathogenic Fungi (NCPF) or collected as part of ongoing surveillance studies. The strains were characterised as follows.

In another test the test system is Candida auris TDG2506. In words: microbe, parasite or virus in culture. Particulars: Candidozyma auris. Type of test: cell-based. The method, then: as §1, §2, §3, §4, §5, §6
A further test concerns C. auris 8971. In words: Candida panel MIC, serial dilution in 96-well plates. Type of test: cell-based, Candida auris. The method, then: as §1, §2, §3, §4, §5, §6
The subject of a further test is C. auris 8977. Described as above. Type of test: cell-based, Candida auris. Here is the method:
as §1, §2, §3, §4, §5, §6

The test system of the next test is C. auris 8984. The description is as above. The class given is cell-based, Candida auris. The method, then: as §1, §2, §3, §4, §5, §6
For a further test, the system named is C. albicans NCPF3281. The description is as above. The class given is cell-based, Candida albicans. Particulars: Candida albicans, NCPF3281; Table 4, common panel; 24 hours, ≥50% inhibition; read-out: MIC C. albicans NCPF3281. Here is the method: as §1, §2
(§7) Solutions of the compound to be tested were prepared by dissolving the compound in DMSO and subsequently into media to the desired concentrations. 200 μL of compound solution was then added to the wells of the 96-well plate using a serial dilution method row-by row of the plate to give a compound concentration gradient across the plate of from 128 μg/mL to 0.25 μg/mL. The last two rows of each plate were control rows containing the culture media alone and the media plus fungi.
as §4, §5

A further test relates to C. glabrata NCPF8018. Described as above. The class given is cell-based, Candida glabrata. Particulars: Nakaseomyces glabratus. The method, then:
as §1, §2, §3, §4, §5

The next test has as its system C. krusei NCPF3876. Put plainly: microbe, parasite or virus in culture. Particulars: Pichia kudriavzevii. The class given is cell-based, Candida krusei. Here is the method: as §1, §2, §3, §4, §5
The next test has as its system C. parapsilosis NCPF3209. In words: microbe, parasite or virus in culture. The class given is cell-based, Candida parapsilosis. Particulars: Lodderomyces parapsilosis. Here is the method: as §1, §2, §3, §4, §5
For the next test, the system named is C. auris TDG1912. Put plainly: Candida panel MIC, serial dilution in 96-well plates. Particulars: Candidozyma auris, TDG1912; Table 4; 24 hours, ≥50% inhibition; read-out: MIC C. auris TDG1912. The class given is cell-based. Here is the method: as §1, §2, §7, §4, §5
In the next test the test system is C. tropicalis NCPF8760. The description is as above. Type of test: cell-based. Here is the method: as §1, §2, §7, §4, §5
A further test deals with Candida auris TDG1102. The test is described as above. Particulars: Candidozyma auris, TDG1102; Table 4, extended panel; 24 hours, ≥50% inhibition; read-out: MIC Candida auris TDG1102. The class given is cell-based. The method, then: as §1, §2, §7, §4, §5
The next test relates to Candida auris TDG2512. Described as above. The class given is cell-based. The following applies: Candidozyma auris, TDG2512; Table 4, extended panel; 24 hours, ≥50% inhibition; read-out: MIC Candida auris TDG2512. Here is the method:
as §1, §2, §7, §4, §5

The mark [1] stands for this setting: TDG2211, read-out: MIC C. auris 2211.
Setting [2] is: TDG2506, read-out: MIC C. auris 2506.
Setting [3] is: Candidozyma auris, 8971, read-out: MIC C. auris 8971.
Where [4] appears, read: Candidozyma auris, 8977, read-out: MIC C. auris 8977.
[5] abbreviates: Candidozyma auris, 8984, read-out: MIC C. auris 8984.
Setting [6] is: NCPF8018, Table 4, common panel, 24 hours, ≥50% inhibition, read-out: MIC C. glabrata NCPF8018.
The mark [7] stands for this setting: NCPF3876, Table 4, common panel, 24 hours, ≥50% inhibition, read-out: MIC C. krusei NCPF3876.
Where [8] appears, read: NCPF3209, Table 4, common panel, 24 hours, ≥50% inhibition, read-out: MIC C. parapsilosis NCPF3209.
[9] abbreviates: NCPF8760, Table 4, common panel, 24 hours, ≥50% inhibition, read-out: MIC C. tropicalis NCPF8760.
[10] abbreviates: NCPF8018, read-out: MIC C. Glabrata NCPF8018.
The mark [11] stands for this setting: NCPF3876, read-out: MIC C. Krusei NCPF3876.
[12] abbreviates: NCPF3209, read-out: MIC C. Parapsilosis NCPF3209.
Where [13] appears, read: TDG2211, Table 4, extended panel, 24 hours, ≥50% inhibition, read-out: MIC Candida auris TDG2211.
The mark [14] stands for this setting: TDG2506, Table 4, extended panel, 24 hours, ≥50% inhibition, read-out: MIC Candida auris TDG2506.
The mark [15] stands for this setting: NCPF8760, read-out: MIC C. Tropicalis NCPF8760.
The mark [16] stands for this setting: Candidozyma auris, 8971, Table 4, extended panel, 24 hours, ≥50% inhibition, read-out: MIC C. auris 8971.
Where [17] appears, read: Candidozyma auris, 8977, Table 4, extended panel, 24 hours, ≥50% inhibition, read-out: MIC C. auris 8977.
The mark [18] stands for this setting: Candidozyma auris, 8984, Table 4, extended panel, 24 hours, ≥50% inhibition, read-out: MIC C. auris 8984.

SMILES strings stand for the structures. Values after ≈ are worked out from the molar mass of the structure shown. Like-named read-outs stand apart in the source and are kept apart here. Where only a bound is given, the exact number is not on record here.

`OC(CN1CCC(Nc2ccc(OCc3ccccc3)cc2)CC1)(Cn1cncn1)c1ccc(F)cc1F` (stereo not drawn) [Compound number 90, 1-(4-((4-(benzyloxy)phenyl)amino)piperidin-1-yl)-2-(2,4-difluorophenyl)-3-(1H-1,2,4-triazol-1-yl)propan-2-ol]: the MIC in the test on Candida auris TDG2211 (setting [1]) is at most 3 ng/mL; in the test with Candida auris TDG2506 (setting [2]) it was at most 0.003 µg/mL; in the test on C. auris 8971 (setting [3]), at most 3 ng/mL; in the test on C. auris 8977 (setting [4]), at most 3 ng/mL; in the test on C. auris 8984 (setting [5]) it was at most 0.003 µg/mL.
Regarding `OC(CN1CCCCN(c2cnccn2)CC1)(Cn1cncn1)c1ccc(F)cc1F` (stereo not drawn) [Example 17, 2-(2,4-Difluorophenyl)-1-(4-(pyrazin-2-yl)-1,4-diazocan-1-yl)-3-(1H-1,2,4-triazol-1-yl)propan-2-ol], the MIC was at most 0.125 µg/mL with C. albicans NCPF3281; 0.12 µg/mL (≈ 0.279 µM) with C. glabrata NCPF8018 (setting [6]); 4 µg/mL (≈ 9.31 µM) with C. krusei NCPF3876 (setting [7]); at most 125 ng/mL with C. parapsilosis NCPF3209 (setting [8]); 4 to 16 µg/mL (≈ 9.31 to 37.3 µM) in the test on C. auris TDG1912; 4 to 8 µg/mL (≈ 9.31 to 18.6 µM) in the test on C. tropicalis NCPF8760 (setting [9]).
Turning to `COc1ccc(Oc2ccc(NC3CCN(CC(O)(Cn4cncn4)c4ccc(F)cc4F)CC3)cc2)cc1` (stereo not drawn) [Example 86], the MIC was 0.0078 to 0.0156 µg/mL (≈ 0.0146 to 0.0291 µM) with C. albicans NCPF3281; 0.5 µg/mL (≈ 0.934 µM) in the test with C. glabrata NCPF8018 (setting [10]); 0.5 µg/mL (≈ 0.934 µM) with C. glabrata NCPF8018 (setting [6]); 0.015 to 0.125 µg/mL (≈ 0.028 to 0.233 µM) in the test with C. krusei NCPF3876 (setting [11]); 0.015 to 0.125 µg/mL (≈ 0.028 to 0.233 µM) with C. krusei NCPF3876 (setting [7]); 0.98 to 7.8 ng/mL (≈ 0.00183 to 0.0146 µM) in the test with C. parapsilosis NCPF3209 (setting [12]). The MIC in the test with C. parapsilosis NCPF3209 (setting [8]) was 0.98 to 7.8 ng/mL (≈ 0.00183 to 0.0146 µM); with Candida auris TDG2211 (setting [13]) it was 7.8 ng/mL (≈ 0.0146 µM); in the test with Candida auris TDG2506 (setting [14]) it was 0.0625 µg/mL (≈ 0.117 µM); with C. tropicalis NCPF8760 (setting [9]), 0.125 µg/mL (≈ 0.233 µM); in the test on C. tropicalis NCPF8760 (setting [15]), 0.125 µg/mL (≈ 0.233 µM); with Candida auris TDG1102, 0.015 to 0.0625 µg/mL (≈ 0.028 to 0.117 µM). In addition, the MIC in the test with Candida auris TDG2512 was 7.8 ng/mL (≈ 0.0146 µM); with C. auris 8971 (setting [16]), 0.98 to 30 ng/mL (≈ 0.00183 to 0.056 µM); in the test with C. auris 8977 (setting [17]), 0.98 to 3.9 ng/mL (≈ 0.00183 to 0.00728 µM); in the test with C. auris 8984 (setting [18]), 0.0078 to 0.125 µg/mL (≈ 0.0146 to 0.233 µM).
Consider `CC(C)COc1ccc(NC2CCN(CC(O)(Cn3cncn3)c3ccc(F)cc3F)CC2)cc1` (stereo not drawn) [Example 84], for which the MIC is 0.00195 µg/mL (≈ 0.00402 µM) in the test with C. albicans NCPF3281; 0.06 µg/mL (≈ 0.124 µM) in the test on C. glabrata NCPF8018 (setting [10]); 0.06 µg/mL (≈ 0.124 µM) in the test with C. glabrata NCPF8018 (setting [6]); 0.03 µg/mL (≈ 0.0618 µM) in the test with C. krusei NCPF3876 (setting [11]); 0.03 µg/mL (≈ 0.0618 µM) with C. krusei NCPF3876 (setting [7]); 0.98 to 1.95 ng/mL (≈ 0.00202 to 0.00402 µM) in the test with C. parapsilosis NCPF3209 (setting [12]). In addition, the MIC in the test with C. parapsilosis NCPF3209 (setting [8]) was 0.98 to 1.95 ng/mL (≈ 0.00202 to 0.00402 µM); with Candida auris TDG2211 (setting [13]), 0.98 to 1.95 ng/mL (≈ 0.00202 to 0.00402 µM); in the test with Candida auris TDG2506 (setting [14]) it was 0.03 µg/mL (≈ 0.0618 µM); in the test on C. tropicalis NCPF8760 (setting [9]) it was 0.125 µg/mL (≈ 0.257 µM); in the test with C. tropicalis NCPF8760 (setting [15]), 0.125 µg/mL (≈ 0.257 µM); in the test with Candida auris TDG1102, 0.0156 µg/mL (≈ 0.0321 µM). The MIC is 1.95 to 3.91 ng/mL (≈ 0.00402 to 0.00805 µM) in the test with Candida auris TDG2512, 1.95 to 3.91 ng/mL (≈ 0.00402 to 0.00805 µM) with C. auris 8971 (setting [16]), 3.91 ng/mL (≈ 0.00805 µM) with C. auris 8977 (setting [17]) and 0.03 µg/mL (≈ 0.0618 µM) in the test on C. auris 8984 (setting [18]).
For the compound `OC(CN1CCC2(CCN(Cc3ccccc3)CC2)CC1)(Cn1cncn1)c1ccc(F)cc1F` (stereo not drawn) [Example 1, 1-(9-Benzyl-3,9-diazaspiro[5.5]undecan-3-yl)-2-(2,4-difluorophenyl)-3-(1H-1,2,4-triazol-1-yl)propan-2-ol], the MIC with C. albicans NCPF3281 was 0.5 to 1 µg/mL (≈ 1.04 to 2.08 µM); in the test with C. glabrata NCPF8018 (setting [6]), at most 0.125 µg/mL; with C. krusei NCPF3876 (setting [7]), 1 to 2 µg/mL (≈ 2.08 to 4.15 µM); with C. parapsilosis NCPF3209 (setting [8]) it was 4000 to 8000 ng/mL (≈ 8.31 to 16.6 µM); in the test on C. auris TDG1912 it was at most 0.125 µg/mL; with C. tropicalis NCPF8760 (setting [9]) it was 0.25 to 1 µg/mL (≈ 0.519 to 2.08 µM).
In the case of `OC(CN1CCC2(CCC(Nc3ccc(Cc4ccccc4)cc3)CC2)C1)(Cn1cncn1)c1ccc(F)cc1F` (stereo not drawn) [Compound number 13, 1-(8-((4-benzylphenyl)amino)-2-azaspiro[4.5]decan-2-yl)-2-(2,4-difluorophenyl)-3-(1H-1,2,4-triazol-1-yl)propan-2-ol], the MIC in the test on Candida auris TDG2211 (setting [1]) was at most 125 ng/mL; in the test on Candida auris TDG2506 (setting [2]), at most 0.125 µg/mL; with C. auris 8971 (setting [3]), at most 125 ng/mL; in the test on C. auris 8977 (setting [4]) it was at most 125 ng/mL; in the test with C. auris 8984 (setting [5]), at most 0.003 µg/mL.
